According to article PMC5566973 (Frontiers in Pharmacology, 2017):
Read-outs that look alike come from different tables or passages of the source.

Assays:
[1] = Cytotoxicity CCK-8 assay in Caco-2 cells; type: cell-based, human; conditions: human, Caco-2 cells, 12 h incubation, read-out: Cell viability
Description: (§1) In brief, the cells were seeded on 96-well plates at 1 × 10^5 cells/mL and cultured in 100 μL of culture medium at incubator for 24 h. […] After 12 h incubation, 10 μL of CCK-8 dye was added to each well, and cells were incubated for another 2 h. Cell viability (%) was calculated using the following Equation (1):
(§2) (1) Cell viability (%)=(ODsample−ODblank)/ (ODcontrol−ODblank) ×100%
(§3) ODsample refers to the absorbance of a well with treated cells and CCK-8. ODblank refers to the absorbance of a well with medium and CCK-8 but without cells. ODcontrol refers to the absorbance of a well with untreated cells and CCK-8. The absorbance at 450 nm was measured by a microplate reader (Biotek Instrument; Gene Co., Ltd., VT, USA), and the results are presented as mean ± SD from triplicate wells.

[2] = system: Caco-2 cells; assay: Cytotoxicity CCK-8 assay in Caco-2 cells; type: cell-based, human; conditions: Caco-2, CCK-8
Description: as §1, §2, §3

[3] = rats, oral total alkaloid extracts from P. harmala 140 mg/kg; ref Zhang, 2013; Shi et al., 2014; cited from earlier work
[4] = Metabolic stability in human liver microsomes; conditions: for residual percentage: human liver microsomes 0.5 mg protein/mL, 2 μM, after incubation; for half-life at 2 μM / microsomal CLint at 2 μM: human, liver microsomes
[5] = Cytotoxicity CCK-8 assay in MDCK cells; type: cell-based, canine; conditions: dog, MDCK cells, 12 h incubation, read-out: Cell viability
Description: as §1, §2, §3

[6] = system: MDCK cells; assay: Cytotoxicity CCK-8 assay in MDCK cells; type: cell-based, canine; conditions: CCK-8
Description: as §1, §2, §3

[7] = system: MRP2; assay: Bidirectional transport in MDCK-MRP2 cell monolayers with MRP2 inhibitors; type: in vitro ADME, canine; conditions: dog, MDCK-MRP2, 2 μM; for efflux ratio at 120 min, 2 μM: read-out: ER
Description: (§4) Caco-2, MDCK and MDCK-MRP2 cells were donated by Prof. Yan Xie and Yueming Ma from Shanghai University of Traditional Chinese Medicine. The cells were grown in culture dishes (Corning® Costar, Cambridge, MA, USA) using DMEM supplemented with 10% FBS, 1% NEAA and 1% penicillin-streptomycin solution. The cells were cultured in 5% CO2 and […] with 90% relative humidity at 37°C. The medium was replaced every other day during incubation. The cells were passaged every 3–4 days between 70 and 80% confluence at a 1:5 split ratio using 0.25% trypsin-EDTA. For the transport experiments, the cells from passages between 30 and 45 were seeded at 1 × 10^5 cells/cm^2 onto permeable polycarbonate inserts (0.45 μm pore size, seeding surface of 0.6 cm^2, Millipore, MA, USA) in 24-well plastic plates. The media in the culture plates were changed every other day for the first week after seeding and were replaced daily afterward. […] The cells were used for the transport experiments 21–28 (Caco-2) or 5–7 (MDCK and MDCK-MRP2) days after seeding, and only monolayers with a TEER-value above 420 Ω cm^2 were used during the studies.
(§5) The apical (AP) and basolateral (BL) sides are typical of polarized Caco-2, MDCK and MDCK-MRP2 epithelial cells. Before the experiments, the polarized cell monolayers were washed twice with warm HBSS solution and subsequently preincubated (37°C, 30 min). Afterward, HBSS solution on both sides of the cell monolayers was removed using a mini desktop vacuum pump. […] The final DMSO concentration in the HBSS or drug mixture was below 0.5%. The monolayers were incubated at 37°C, and 100 μL samples were taken at 30, 60, 90, and 120 min from the acceptor compartment and immediately replaced with the same volume of prewarmed fresh blank HBSS. TEER measurements for assessing the membrane integrity took place before and after the experiments.
(§6) The apparent permeability coefficients (Papp) and ER were calculated as Equations (2) and (3): […]
(§7) where dQ/dt is the steady-state flux, A is the membrane surface area, and C0 is the initial drug concentration in the donor compartment. PappBA is the Papp-value measured in BL to AP direction and PappAB is the Papp-value measured in AP to BL direction. It indicated the involvement of an active transport process when the ER-value is above 1.5 (Hubatsch et al., [2007]).

[8] = system: MDCK-MRP2 cell monolayers; assay: as above; type: in vitro ADME, canine; conditions: MDCK-MRP2, 2 μM
Description: as §4, §5, §6, §7

[9] = Urinary and fecal excretion in rats; type: in vivo, Sprague-Dawley rats; conditions: for Cumulative excretion of the analyte, SUM of urine and feces: within 72 h
Description: Access to water was maintained all the time. Samples including blank urine and feces before dosing, urine and feces from 0 to 24 h, 24 to 48 h, and 48 to 72 h after dosing were collected and stored at −80°C until analysis.
Urine samples were thawed and an aliquot of 100 μL was processed for detection as described in Section Drug Analysis. Feces were homogenized and then weighed, added 6-folds of acetonitrile, extracted by ultrasonic wave for 1 h and then centrifuged. An aliquot of 100 μL was also processed for detection as described in Section Drug Analysis.

[10] = with MK571 0.05 mM (50 μM), + MK571 0.05 mM (MRP2)
[11] = with probenecid 0.2 mM (200 μM), + Probenecid 0.2 mM (MRP2)
[12] = after oral harmaline 40.0 mg/kg, 24 h
[13] = after oral harmaline 40.0 mg/kg, 48 h
[14] = after oral harmaline 40.0 mg/kg, 72 h
[15] = after oral harmaline 40.0 mg/kg
[16] = after oral harmine 40.0 mg/kg, 24 h
[17] = after oral harmine 40.0 mg/kg, 48 h
[18] = after oral harmine 40.0 mg/kg, 72 h

## COc1ccc2c(c1)[nH]c1c(C)nccc12 [Harmine]
[1]; Caco-2, up to 5 μM
  viability at 12 h: > 90%
[2]
  concentration without toxicity or decreased cell viability: up to 5 μM
  drug concentration producing notable toxicity: > 25 µM
[3]
  F-value (absolute bioavailability): 4.96%
[4]
  residual percentage: 54.25%
  half-life at 2 μM: 1.65 h
  microsomal CLint at 2 μM: 14 µL/min/mg
[5]; up to 5 μM
  viability at 12 h: > 90%
[6]
  concentration without toxicity or decreased cell viability: up to 5 μM
  drug concentration producing notable toxicity: > 25 µM
[7]; [10]
  Papp A→B at 120 min, 2 μM: 20.8 ± 1.49 ×10⁻⁶ cm/s
  Papp B→A at 120 min, 2 μM: 11.8 ± 1.25 ×10⁻⁶ cm/s
[7]; [11]
  Papp A→B at 120 min, 2 μM: 10.1 ± 1.69 ×10⁻⁶ cm/s
  Papp B→A at 120 min, 2 μM: 8.62 ± 1.05 ×10⁻⁶ cm/s
[7]; Control (no inhibitor)
  Papp A→B at 120 min, 2 μM: 3.55 ± 0.4 ×10⁻⁶ cm/s
  Papp B→A at 120 min, 2 μM: 8.18 ± 0.98 ×10⁻⁶ cm/s
[8]; + MK571 0.05 mM (MRP2)
  Modulatory effect: +
[8]; + Probenecid 0.2 mM (MRP2)
  Modulatory effect: +
[9]; [12]
  Cumulative excretion in feces (%) of the analyte: 0.01 ± 0.01%
  Cumulative excretion in urine (%) of the analyte: 0.03 ± 0.01%
[9]; [13]
  Cumulative excretion in feces (%) of the analyte: 0.02 ± 0.01%
  Cumulative excretion in urine (%) of the analyte: 0.04 ± 0.01%
[9]; [14]
  Cumulative excretion in feces (%) of the analyte: 0.02 ± 0.01%
  Cumulative excretion in urine (%) of the analyte: 0.05 ± 0.01%
[9]; [15]
  Cumulative excretion of the analyte, SUM of urine and feces: 0.07 ± 0.01%
[9]; [16]
  Cumulative excretion in feces (%) of the analyte: 0.57 ± 0.37%
  Cumulative excretion in urine (%) of the analyte: 0.02 ± 0.02%
[9]; [17]
  Cumulative excretion in feces (%) of the analyte: 0.65 ± 0.36%
  Cumulative excretion in urine (%) of the analyte: 0.02 ± 0.03%
[9]; [18]
  Cumulative excretion in feces (%) of the analyte: 0.65 ± 0.36%
  Cumulative excretion in urine (%) of the analyte: 0.03 ± 0.03%
[9]; after oral harmine 40.0 mg/kg
  Cumulative excretion of the analyte, SUM of urine and feces: 0.69 ± 0.36%

## COc1ccc2c3c([nH]c2c1)C(C)=NCC3 [Harmaline]
[1]; Caco-2, up to 25 μM
  viability at 12 h: > 90%
[2]
  concentration without toxicity or decreased cell viability: up to 25 μM
  drug concentration producing notable toxicity: higher than 100 μM
[3]
  F-value (absolute bioavailability): 63.22%
[4]
  residual percentage: 64.16%
  half-life at 2 μM: 2.46 h
  microsomal CLint at 2 μM: 9.4 µL/min/mg
[5]; up to 25 μM
  viability at 12 h: > 90%
[6]
  concentration without toxicity or decreased cell viability: up to 25 μM
  drug concentration producing notable toxicity: higher than 100 μM
[7]; [10]
  Papp A→B at 120 min, 2 μM: 31.8 ± 1.37 ×10⁻⁶ cm/s
  Papp B→A at 120 min, 2 μM: 40.9 ± 5.48 ×10⁻⁶ cm/s
  efflux ratio at 120 min, 2 μM: 1.34
[7]; [11]
  Papp A→B at 120 min, 2 μM: 32.9 ± 2.23 ×10⁻⁶ cm/s
  Papp B→A at 120 min, 2 μM: 41.9 ± 5.58 ×10⁻⁶ cm/s
  efflux ratio at 120 min, 2 μM: 1.28
[7]; Control (no inhibitor)
  Papp A→B at 120 min, 2 μM: 24.3 ± 2.72 ×10⁻⁶ cm/s
  Papp B→A at 120 min, 2 μM: 32.4 ± 3.81 ×10⁻⁶ cm/s
  efflux ratio at 120 min, 2 μM: 1.33
[8]; + MK571 0.05 mM (MRP2)
  Modulatory effect: −
[8]; + Probenecid 0.2 mM (MRP2)
  Modulatory effect: −
[9]; [12]
  Cumulative excretion in feces (%) of the analyte: 0.14 ± 0.10%
  Cumulative excretion in urine (%) of the analyte: 4.00 ± 4.36%
[9]; [13]
  Cumulative excretion in feces (%) of the analyte: 0.19 ± 0.12%
  Cumulative excretion in urine (%) of the analyte: 4.71 ± 4.20%
[9]; [14]
  Cumulative excretion in feces (%) of the analyte: 0.19 ± 0.12%
  Cumulative excretion in urine (%) of the analyte: 4.85 ± 4.17%
[9]; [15]
  Cumulative excretion of the analyte, SUM of urine and feces: 5.05 ± 4.12%
